Experimental data published in publication PMC9467556, “Identification of novel pyrrolopyrimidine and pyrrolopyridine derivatives as potent ENPP1 inhibitors” (Journal of Enzyme Inhibition and Medicinal Chemistry, 2022).
Structures can show the parent of a compound that is named as a salt.

Legend:
CYP3A4 = CYP3A4 (Homo sapiens, UniProt P08684); assay: CYP inhibition profile; type: in vitro ADME; conditions: compound 10 μM
Excerpt: Table 3. CYP inhibition profile. | column: % inhibition / CYP3A4

[1] = tested on: 4T1 syngeneic mouse tumour model; assay: 4T1 syngeneic mouse tumour model efficacy; type: in vivo; conditions: 40 mg/kg orally once daily, day 14, 4T1 tumour in BALB/c mice
Procedure: Thus, we evaluated the anti-cancer efficacy in the 4T1 syngeneic mouse tumour model to test the therapeutic potential of 18p. We postulated the marginal amount of cGAMP released by tumour could initiate the synergy effect of 18p, then administrated the compound by single-treatment[5]. After 4T1 tumour cells were implanted and grown in the flank of mice, 18p was orally administered (40 mg/kg) once daily and monitored the tumour volume and body weight of each mouse.
Figure 7. 4 × 10^5 of 4T1 cells were subcutaneously inoculated into right side flank of BLAB/c mice (n = 6). Mice were orally administrated by 18p (40 mg/kg) or vehicle by every day. (a) Tumour growth curve of 18p or vehicle. X-axis indicates days after treatment. (b) Tumour growth (%) on day 14. (c) Body weight of 18p or vehicle. X-axis indicates days after treatment. Statistics for tumour volume and tumour growth were analysed by 2way ANOVA and student t-test. *p < 0.05. **p < 0.01. Graphs are depicted by mean and SD.
The study for murine 4T1 […] was approved by the Institutional Animal Care and Use Committee (IACUC) of the Korea Institute of Science and Technology (KIST-2021–04-048). Female BALB/c mice were 8 weeks obtained from DBL (Korea). […] Tumour volume was calculated by following formula: Tumour volume (mm^3) = 0.5 × [length, (mm) × width, (mm)2].

[2] = liver microsomal stability; type: in vitro ADME, rat; conditions: % remaining during 30 min at 1 µM
[3] = tested on: IFN-β secretion in THP-1 cells; assay: IFN-β cytokine release by ELISA; conditions: co-treatment with cGAMP, 8 h
Procedure: Extracellular secretion of IFN-β and IP-10 was measured by enzyme-linked immunosorbent assay (ELISA).
THP-1 cells were seeded in 96 well plate and treated with the compounds for 8 h incubation. 100 μL of cell culture supernatant was harvested and analysed using manufactural protocols.

[4] = liver microsomal stability; type: in vitro ADME, human; conditions: % remaining during 30 min at 1 µM
[5] = liver microsomal stability; type: in vitro ADME, mouse; conditions: % remaining during 30 min at 1 µM
[6] = tested on: interferon stimulated genes (ISG) CXCL10, OAS1, IFITM1 in THP-1 cells; assay: real-time PCR of interferon stimulated genes; type: cell-based, human; conditions: co-treatment with cGAMP, 4 h, normalized by GAPDH
Procedure: Next, we further explored type I IFN response induced by activation of STING signalling. The gene expression for various interferon stimulated genes (ISGs) such as CXCL10, OAS1, and IFITM1 was analysed by real-time PCR.
Figure 5. Real-time PCR analysis for gene expression of various interferon stimulated genes (ISG), CXCL10, OAS1, and IFITM1. THP-1 cells were stimulated by indicated concentration of 18p for 4 h. The relative gene expression level was normalized by GAPDH as an internal standard. Graphs depict mean and RQ max values.
Cells were harvest and RNA were isolated using NucleoSpin RNA plus (MN) according to the manufacturer’s instructions. Genomic DNA was removed and cDNA was synthesised using an iScript gDNA clear cDNA synthesis kit (Bio-Rad). Expression levels were assessed by real-time PCR (CFX96 Real-Time PCR detection system, Bio-rad) using IQ SYBR green Supermix (Bio-Rad). The mRNA levels were normalized by GAPDH and calculated by comparative Ct method.

Chain of CYP3A4 (P08684 whole entry): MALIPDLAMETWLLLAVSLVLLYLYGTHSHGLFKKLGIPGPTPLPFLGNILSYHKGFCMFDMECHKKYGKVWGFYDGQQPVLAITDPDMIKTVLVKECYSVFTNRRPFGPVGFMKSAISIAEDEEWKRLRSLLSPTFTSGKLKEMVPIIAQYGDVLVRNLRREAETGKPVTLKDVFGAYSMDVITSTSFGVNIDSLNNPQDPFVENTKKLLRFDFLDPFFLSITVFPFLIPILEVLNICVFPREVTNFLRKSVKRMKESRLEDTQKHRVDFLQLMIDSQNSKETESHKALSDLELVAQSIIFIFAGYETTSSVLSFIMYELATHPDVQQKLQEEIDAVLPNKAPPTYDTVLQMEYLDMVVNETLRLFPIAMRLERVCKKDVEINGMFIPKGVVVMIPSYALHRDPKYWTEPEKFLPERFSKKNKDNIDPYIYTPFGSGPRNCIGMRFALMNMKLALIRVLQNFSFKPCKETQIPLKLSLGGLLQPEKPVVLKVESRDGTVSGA

- % inhibition CYP3A4 (CYP3A4): 8.9%
- Microsomal stability (%) Rat [2]: 96%
- Microsomal stability (%) Human [4]: 93%
- Microsomal stability (%) Mouse [5]: 83%
Compound: CC1(CNS(N)(=O)=O)CCN(c2ncnc3[nH]ccc23)CC1 [18p, N-((4-Methyl-1-(7H-pyrrolo[2,3-d]pyrimidin-4-yl)piperidin-4-yl)methyl)methanesulfamide hydrochloride]
- TGI [1]: 39%
- IFN-β cytokine release [3]: secreted more cytokine than with cGAMP alone
- gene expression of interferon stimulated genes (CXCL10, OAS1, IFITM1) [6]: induced expression of all ISG genes we tested
